The target in this assay is GPR55 (Homo sapiens, UniProt Q9Y2T6). In words: saturable fluorescent ligand uptake in live cells, reduced by GPR55 siRNA. The class given is cell-based.

Experimental findings from article PMC3935314 (Biochemical pharmacology, 2013) are described below.

As a reminder, the EC50 is the concentration needed to bring the measured effect to its halfway point.

GPR55, sequence (Q9Y2T6 whole entry): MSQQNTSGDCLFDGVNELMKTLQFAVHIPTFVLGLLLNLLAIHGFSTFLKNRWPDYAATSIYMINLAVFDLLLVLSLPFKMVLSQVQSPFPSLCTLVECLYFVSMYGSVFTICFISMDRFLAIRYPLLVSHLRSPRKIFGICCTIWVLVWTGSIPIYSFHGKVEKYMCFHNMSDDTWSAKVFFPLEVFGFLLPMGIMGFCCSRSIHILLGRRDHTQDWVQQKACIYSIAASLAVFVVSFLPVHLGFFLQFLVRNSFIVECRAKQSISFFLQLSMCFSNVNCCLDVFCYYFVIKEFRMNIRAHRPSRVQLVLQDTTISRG

Consider Tocrifluor 1117 [T1117], for which the EC50 was approximately 8 nM.
